Experimental data as given in article PMC10458307, “New Scaffolds of Proteasome Inhibitors: Boosting Anticancer Potential by Exploiting the Synergy of In Silico and In Vitro Methodologies” (Pharmaceuticals, 2023).
pIC50: −log10 of the molar value. Values joined by “and” are separate entries in the source; they are usually repeats but may differ in a detail not shown here. Identical values can stand only once. Like-named read-outs stand apart in the source and are kept apart here.

Legend:
[1] = molecular target: T1, isolated human 20S proteasome, CT-L activity (Homo sapiens, UniProt P20618+P28074); assay: Proteasome inhibition assay in isolated human 20S proteasomes (Proteasome-Glo), CT-L activity; type: biochemical; conditions: for inhibition at 10 µM: read-out: percentage of proteasome inhibition, CT-L, isolated 20S proteasome; for percentage of proteasome inhibition, CT-L, isolated human 20S proteasome: at 100 µM, Table 1 legend: bortezomib positive control 10 µM
T1 construct: human purified erythrocyte-derived 20S proteasome; purchased Enzo Life Sciences, Inc; host or cells: human erythrocytes (natural source)
Text: (§1) In this assay, the peptide substrates are bound to aminoluciferin (Suc-LLVY-AML for CT-L activity, Z-nLPnLD-AML for C-L, and Z-LRR-AML for T-L), leading the cleavage of these substrates by the proteasome to the release of free aminoluciferin, which is the substrate of the buffer-contained luciferase.
(§2) To evaluate human purified erythrocyte-derived 20S proteasome inhibitory activity of the chosen compounds, the Proteasome-Glo™ 3-substrate system (Promega Corporation, Madison, WI, USA) was employed. The Proteasome-Glo™ reagents of the three proteolytic activities were prepared according to the manufacturer’s instructions, aliquoted, and stored at either −20 °C or 4 °C, avoiding freezing–thaw cycles. […] The purified 20S proteasome (Enzo Life Sciences, Inc., Farmingdale, NY, USA) was diluted in HEPES buffer 10 mM, pH 7.4, to a concentration experimentally adjusted to the signal/noise ratio obtained with each particular lot of Proteasome-Glo™ reagent, in order to have a good compromise between sensitivity and linear response. […] All assays were performed in white-walled multiwell plates (Thermo Scientific™ Sterilin™ White Microtiter™ plates, Thermo Fisher Scientific, Paisley, UK) in duplicates. The proteasome solution (25 μL) was added to each well first, then the diluted solutions of the assayed compounds (25 μL), and lastly the Proteasome-Glo™ Reagent (50 μL). […] Reagents were added to the plate well on ice, and the plate was then transferred to the plate luminometer (SpectraMax®, Molecular Devices, LLC, San Jose, CA, USA) set at 37 °C, gently mixed for 30 s, and the measurements were immediately started in kinetic mode, with data collected every 5 min for at least 60 min.
(§3) All compounds were dissolved in DMSO at a concentration of 10 mM and stored at −20 °C or 4 °C. Solutions of the test compounds were prepared at their adequate dilutions in 10 mM HEPES buffer pH 7.6 before each experiment.
(§4) To calculate the proteasome activity over time, the value of mean relative luminescence units (RLU) of blank wells at each respective time point was subtracted, and then the ratio between mean RLU of the sample and mean RLU of the positive control wells was calculated for each time point and expressed as percentage.

[2] = molecular target: T2, isolated human 20S proteasome, T-L activity (Homo sapiens, UniProt P49720+Q99436); assay: Proteasome inhibition assay in isolated human 20S proteasomes (Proteasome-Glo), T-L activity; type: biochemical; conditions: for inhibition at 10 µM: read-out: percentage of proteasome inhibition, T-L, isolated 20S proteasome; for percentage of proteasome inhibition, T-L, isolated human 20S proteasome: at 100 µM, Table 1 legend: bortezomib positive control 10 µM; for pIC50: mean ± SD
T2 construct: human purified erythrocyte-derived 20S proteasome; purchased Enzo Life Sciences, Inc; host or cells: human erythrocytes (natural source)
Text: as §1, §2, §3, §4

[3] = molecular target: T3, 20S proteasome in Jurkat cell lysates, CT-L activity (Homo sapiens, UniProt P28074); assay: Proteasome inhibition assay in cell lysates, Jurkat, CT-L; conditions: for inhibition at 10 µM: read-out: percentage of proteasome inhibition, CT-L, cell lysates Jurkat, at 10 µM; for inhibition at 100 µM: read-out: percentage of proteasome inhibition, CT-L, cell lysates Jurkat, at 100 µM
T3 sequence (P28074 60-263): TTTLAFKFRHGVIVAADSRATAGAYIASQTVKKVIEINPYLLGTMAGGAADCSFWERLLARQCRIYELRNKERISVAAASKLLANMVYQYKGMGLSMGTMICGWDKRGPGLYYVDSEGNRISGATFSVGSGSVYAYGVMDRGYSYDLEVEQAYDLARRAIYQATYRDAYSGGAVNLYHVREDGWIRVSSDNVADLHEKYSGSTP
T3 sequence (P20618 29-241 partner): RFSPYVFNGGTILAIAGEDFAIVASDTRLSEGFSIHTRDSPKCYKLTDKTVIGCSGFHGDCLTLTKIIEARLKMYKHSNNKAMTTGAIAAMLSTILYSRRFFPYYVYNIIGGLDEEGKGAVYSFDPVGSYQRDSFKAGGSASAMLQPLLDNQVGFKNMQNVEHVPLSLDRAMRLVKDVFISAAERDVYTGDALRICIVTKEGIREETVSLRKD
Description: Cells were obtained from several cultured cell lines: Jurkat, K562, HT-29, and HCT116. Pellets with 20 × 10^6 cells were prepared and washed with cold sterile phosphate buffered saline (PBS), 1×, pH 7.4 (Gibco, Thermo Fisher Scientific, Paisley, UK). The preparation of the lysates from several cell lines was performed based on the methodology described by Gavioli et al. [67]. Cells were resuspended in buffer containing 50 mM TRIS-HCl pH 7.4 (Nzytech, Lisboa, Portugal), 5 mM MgCl2 (≥98% purity, Merck, Hamburg, Germany), 1 mM DTT (Merck, Hamburg, Germany), 2 mM ATP (≥98% purity, Enzo Life Sciences Inc., Farmingdale, NY, USA), and 250 mM saccharose (Merck, Hamburg, Germany). Glass beads (Merck, Hamburg, Germany) equivalent to the volume of the cell suspension were added, and the mixture was vortexed for 2 min at 4 °C. Beads and cell debris were removed using 5 min centrifugation at 1000× g and 4 °C, followed by 20 min of centrifugation at 10,000× g at 4 °C. Cell lysates containing proteasomes were resuspended in “activity buffer” [50 mM TRIS-HCl (pH 7.4), 5 mM MgCl2, 1 mM DTT, 2 mM ATP (≥98% purity, Enzo Life Sciences Inc., Farmingdale, NY, USA), and 500 µM EDTA (≥98% purity, Merck, Hamburg, Germany)]. Protein concentration was determined using the Pierce™ BCA protocol (Thermo Fisher Scientific, Rockford, IL, USA). […] DMSO was added in an equal volume as used for the untreated compounds as a way to assess/control its influence in the assay. Untreated cells were used as control. In each well of a 96-well plate, 25 µL of lysate were seeded in duplicate with 25 µL of the compound to test; in the control, 25 µL of activity buffer were added to the 25 µL of lysate. A blank (50 µL of activity buffer) was added to the wells in quadruplicate. Cell lysates, pre-treated or not with different concentrations of the test compounds, were incubated for 30 min at 37 °C. […] Stock solutions (10 mM) of each substrate were prepared in DMSO, diluted in activity buffer, and 50 µL were added to all wells (final concentration of each substrate = 100 µM), followed by an incubation at 37 °C for 60 min. Samples fluorescence was measured at an excitation wavelength of 360 nm and emission of 465 nm; the fluorescence measures were performed using the GloMax-Multi + Detection System (Promega Corp., Madison, WI, USA). Activity was evaluated in fluorescence units, after being converted to percentage of proteasome inhibition and, whenever possible, expressed as IC50 by plotting the inhibition data of each compound at different concentrations against the log of the concentration of the inhibitor, using the GraphPad Prism software version 7. At least eight different concentrations of the test compounds were used.

Jurkat cells = assay: Cell viability, MTT assay, Jurkat; type: cell-based, human; conditions: 72 h; for pIC50: Homo sapiens, Jurkat, mean ± SD; for percentage of cell viability, MTT, Jurkat: at 100 µM
Description: (§5) Whenever possible, additional concentrations were tested and IC50 values were determined.
(§6) Human leukemia Jurkat E6.1 T-cell line and K562-cell line were originally obtained from ATCC Collections (Manassas, VA, USA); human HT-29 and HCT116 colorectal carcinoma-cell lines were obtained from ECACC (Porton Down, Porton, UK). Cells were passaged for less than 6 months after and routinely tested for mycoplasma contamination using Mycoalert detection kit (Lonza, Basel, Switzerland). Jurkat, K562, and HT-29 cells were maintained in Roswell Park Memorial Institute (RPMI) 1640 with GlutaMAX™, supplemented with 1% antibiotic mixture (100 µg/mL streptomycin and 100 U/mL penicillin) and 10% heat-inactivated foetal bovine serum (FBS) (all from Gibco, Thermo Fisher Scientific, Paisley, UK). HCT116 cells were maintained in Dulbecco’s Modified Eagle Medium (DMEM) with GlutaMAX™, supplemented with 1% antibiotic mixture (100 µg/mL streptomycin and 100 U/mL penicillin) and 10% heat-inactivated FBS (all from Gibco, Thermo Fisher Scientific, Paisley, UK). Incubation was performed at 37 °C in a 5% CO2 atmosphere. Cells were routinely passaged every 2 or 3 days at 70–90% confluence; TrypLE Express (Gibco, Thermo Fisher Scientific, Paisley, UK) was used as dissociation agent for adherent cells. Trypan blue (Gibco, Thermo Fisher Scientific, Paisley, UK) was used to assess cell viability using the dye exclusion test.
(§7) To assess cell viability, the MTT assay was performed. Jurkat/K562/HT-29/HCT116 cell lines were seeded in triplicate (10,000 cells/well) in 96-well plates with 50 µL of complete medium and incubated at 37 °C, 5% CO2 for 24 h to allow the cells to adhere to the plate (in the case of adherent cells). […] Untreated cells seeded in triplicate were used as control. The blank was performed in triplicate with 100 µL of culture medium. The cells were incubated with the compounds, in triplicate, in 100 µL of total volume, at 37 °C, 5% CO2 for 72 h. […] In suspension cells (Jurkat), 25 µL of MTT were directly added to each well and, after 3 h 30 m of incubation, 100 µL of DMSO were added to solubilize the formazan crystals; in adherent cells (HT-29 and HCT116), the culture medium was removed, 25 µL of MTT were added to each well and, after 3 h 30 m of incubation, upon MTT removal, 100 µL of DMSO were added to solubilize the formazan crystals. After 15 min, the samples absorbance was measured at 570 nm and the percentage of cell viability was determined.

[4] = Cell viability, MTT assay, Jurkat; type: cell-based, human; conditions: human, Jurkat E6.1 T-cell leukemia cells, read-out: percentage of cell viability, MTT, Jurkat; for viability at 72 h, 10 µM: at 10 µM; for viability at 72 h, 100 µM: at 100 µM
Description: as §5, §6, §7

[5] = molecular target: T4, isolated human 20S proteasome, C-L activity (Homo sapiens, UniProt P28072+Q99436); assay: Proteasome inhibition assay in isolated human 20S proteasomes (Proteasome-Glo), C-L activity; type: biochemical; conditions: for inhibition at 10 µM: read-out: percentage of proteasome inhibition, C-L, isolated 20S proteasome; for percentage of proteasome inhibition, C-L, isolated human 20S proteasome: at 100 µM, Table 1 legend: bortezomib positive control 10 µM
T4 construct: human purified erythrocyte-derived 20S proteasome; purchased Enzo Life Sciences, Inc; host or cells: human erythrocytes (natural source)
Text: as §1, §2, §3, §4

[6] = mean ± SD, read-out: IC50, CT-L, isolated human 20S proteasome
[7] = Table 2 legend: bortezomib 10 µM
[8] = at 100 µM, Table 2 legend: bortezomib 10 µM

SMILES	inhibition at 10 µM ([1]; at 10 µM) [%]	percentage of proteasome inhibition, CT-L, isolated human 20S proteasome [1]	pIC50 [1, 6]	inhibition at 10 µM [2] [%]	percentage of proteasome inhibition, T-L, isolated human 20S proteasome [2]	pIC50 [2]	pIC50 [3]	inhibition at 10 µM [3] [%]	inhibition at 100 µM [3, 7] [%]	pIC50 (Jurkat cells)	viability at 72 h, 10 µM [4] [%]	viability at 72 h, 100 µM [4] [%]	inhibition at 10 µM [5] [%]	percentage of proteasome inhibition, C-L, isolated human 20S proteasome [5]	percentage of proteasome inhibition, CT-L, cell lysates Jurkat ([3]; at 10 µM) [%]	percentage of proteasome inhibition, CT-L, cell lysates Jurkat [3, 8]	pIC50 [1]	inhibition at 10 µM [1] [%]	percentage of cell viability, MTT, Jurkat (Jurkat cells) [%]
C#CCCN1CCN(c2ccc(-n3c(=O)ccc4cnc5ccc(-c6ccc(N)nc6)cc5c43)cc2C(F)(F)F)CC1 [Compound 4, 9-(6-Aminopyridin-3-yl)-1-(4-(4-(but-3-yn-1-yl)piperazin-1-yl)-3-(trifluoromethyl)phenyl)benzo[h][1,6]naphthyridin-2(1H)-one]	3.3	69.90% and 70%	4.29	0	73.95% and 74%	4.32	4.62	10.5	98	5.86	23.3	0	5.8	77.65% and 78%	–	–	–	–	–
CC(C)C[C@H](NC(=O)[C@H](Cc1ccccc1)NC(=O)c1cnccn1)B(O)O [Bortezomib, bortezomib, reference compound]	91	99.92% and 100%	–	3.2	33.58% and 34%	–	–	–	–	8.19	0	0	33.8	92.80% and 93%	99.63	99.30% and 99%	–	–	–
Cc1ccc(/C(=N/NS(=O)(=O)c2ccc([N+](=O)[O-])cc2)Sc2cc(Cl)c(C)cc2S(N)(=O)=O)cc1 [Compound 3]	–	91.40% and 91%	–	8.8	95.30% and 95%	4.56	–	0	32.8	–	98.1	86	9.9	88.38% and 88%	–	33%	4.31	8.2	86
O=C1c2ccccc2C(=O)c2c(Nc3ccc(S(=O)(=O)N(CCO)CCO)cc3)ccc(O)c21 [Compound 2]	81.3	98%	5.25	0	97.00%	4.59	4.14	8.23	72.1	–	80.2	77.2	90.8	97.86% and 98%	–	72%	–	–	77
CC(C)c1nc(CN(C)C(=O)N[C@@H](CCN2CCOCC2)C(=O)N[C@H](CC[C@H](Cc2ccccc2)NC(=O)OCc2cncs2)Cc2ccccc2)cs1 [Compound 5, cobicistat, reference compound]	2.85	35.60% and 36%	–	5.37	5.35% and 5%	–	–	0	63.7	4.36	93.3	0	0	33.57% and 34%	–	64%	–	–	–
Cc1ccc2ccccc2c1CSc1ncnc2c1ncn2C1OC(CO)C(O)C1O (stereo not shown) [Compound 1]	0	37.72% and 38%	–	4.43	51.65% and 52%	–	–	0	53.5	4.43	98.7	21	0	54.47% and 55%	–	54%	–	–	21
